Patent publication US20160235727A1, “NOVEL PYRROLIDINE DERIVED BETA 3 ADRENERGIC RECEPTOR AGONISTS” (Merck Sharp & Dohme Corp., priority 2013, published 2016)
Like-named read-outs stand apart in the source and are kept apart here.

Target: T1, human β3-AR (Homo sapiens, UniProt P13945)
T1 construct: expressed in transfected cells; host or cells: CHO (Chinese hamster ovary) cells, stably transfected
Assay: cAMP functional agonist assay (LANCE TR-FRET) in CHO cells expressing cloned human β3-AR
Type: cell-based
Conditions: for Fold drop in potency vs. 2-chloropyridine analog: EC50 of comparative example divided by EC50 of corresponding 2-chloropyridine compound; for Human β3-AR Agonist Activity (%): percent maximum activation relative to isoproterenol
Method: The ability of compounds to activate the human β3-AR receptor was measured using a CHO cell line stably expressing the cloned human β1-, β2-, and β3-adrenoceptors (β-AR). […] To quantify the amount of cAMP released following β-AR activation, the LANCE cAMP kit (Perking Elmer), a time-resolved fluorescence resonance energy transfer immunoassay, was used. Compounds were serially diluted in DMSO and an aliquot added to either 384-well or 96-well micro titer plates in assay buffer (5 mM HEPES, 0.1% BSA in Hank's Balanced Salt Solution). […] Following 30 min incubation at room temperature, the cells were lysed by the addition of LANCE detection buffer which contained a europium-labeled cAMP tracer. Fluorescence was measured following one hour incubation at room temperature using a Perking Elmer Envision plate reader, exciting at 340 nm and measuring emission at 615 nm and 665 nm. For each assay, a cAMP standard curve was included and used to convert fluorescence readings directly to cAMP amounts. The values were then normalized to isoproterenol, a known full agonist of β-AR, which was titrated in every assay and the EC50 determined using a custom in-house data analysis package. Along with EC50, the percent maximum activation relative to isoproterenol is reported.
The cAMP production is measured using a homogenous time-resolved fluorescence resonance energy transfer immunoassay (LANCE™, Perkin Elmer) according to the manufacture's instructions. Chinese hamster ovary (CHO) cells, stably transfected with the cloned β-adrenergic receptor (β1, β2 or β3) are harvested after 3 days of subculturing. Harvesting of cells is done with Enzyme-free Dissociation Media (Specialty Media). Cells are then counted and resuspended in assay buffer (Hank's Balanced salt solution supplemented with 5 mM HEPES, […]) containing a phosphodiesterase inhibitor (IBMX, 0.6 mM). The reaction is initiated by mixing 6,000 cells in 6 μL with 6 μL Alexa Fluor labeled cAMP antibody (LANCE™ kit) which is then added to an assay well containing 12 μL of compound (diluted in assay buffer to 2× final concentration). The reaction proceeds for 30 minutes at RT and is terminated by the addition of 24 ul detection buffer (LANCE™ kit). The assay plate is then incubated for 1 h at RT and time-resolved fluorescence measured on a Perkin Elmer Envision reader or equivalent. The unknown cAMP level is determined by comparing fluorescence levels to a cAMP standard curve.
The non-selective, full agonist β-adrenergic ligand isoproterenol is used at all three receptors to determine maximal stimulation. […] Data are analyzed using Microsoft Excel and Graphpad Prism or an internally developed data analysis software package. […]

[1] = CHO cells stably expressing cloned human β3-adrenoceptor, cAMP release, read-out: Human β3-AR Agonism EC50

T1 sequence (P13945 whole entry): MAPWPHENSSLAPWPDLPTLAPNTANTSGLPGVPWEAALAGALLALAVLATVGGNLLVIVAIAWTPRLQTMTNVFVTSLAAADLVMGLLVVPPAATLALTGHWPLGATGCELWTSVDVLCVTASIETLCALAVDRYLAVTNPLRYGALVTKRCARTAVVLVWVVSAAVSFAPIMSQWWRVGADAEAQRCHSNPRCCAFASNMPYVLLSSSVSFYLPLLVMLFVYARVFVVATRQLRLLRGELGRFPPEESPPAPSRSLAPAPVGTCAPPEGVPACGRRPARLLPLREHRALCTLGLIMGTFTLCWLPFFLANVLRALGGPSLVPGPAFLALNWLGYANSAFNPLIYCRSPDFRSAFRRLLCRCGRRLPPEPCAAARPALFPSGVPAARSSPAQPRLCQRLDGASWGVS

Row | Compound | EC50 [1] | Fold drop in potency vs. 2-chloropyridine analog | Human β3-AR Agonist Activity (%) | EC50
1 | Cc1nnc2ccc(CN(C)C(=O)c3ccc(C[C@@H]4CC[C@H]([C@H](O)c5ccccc5)N4)cc3)cn12 [Example 43-B, 4-(((2S,5R)-5-((R)-hydroxy(phenyl)methyl)pyrrolidin-2-yl)methyl)-N-methyl-N-((3-methyl-[1,2,4]triazolo[4,3-a]pyridin-6-yl)methyl)benzamide] | 1620 nM | <0.12 fold | 79% | –
2 | Cc1cc(CN(C)C(=O)c2ccc(C[C@@H]3CC[C@H]([C@H](O)c4ccc(Cl)nc4)N3)cc2)cnc1F [Example 39-A, 4-(((2S,5R)-5-((R)-(6-chloropyridin-3-yl)(hydroxy)methyl)pyrrolidin-2-yl)methyl)-N-((6-fluoro-5-methylpyridin-3-yl)methyl)-N-methylbenzamide] | 1 nM | – | 96% | –
3 | CC(c1cccnc1)N(C)C(=O)c1ccc(C[C@@H]2CC[C@H]([C@H](O)c3ccccc3)N2)cc1 (stereo partly drawn) [Example 23-B, 4-(((2S,5R)-5-((R)-hydroxy(phenyl)methyl)pyrrolidin-2-yl)methyl)-N-methyl-N-(1-(pyridin-3-yl)ethyl)benzamide] | 3 nM | 1.5 fold | 93% | –
4 | Cc1cc([C@@H](O)[C@H]2CC[C@@H](Cc3ccc(C(=O)N(C)Cc4cnccn4)cc3)N2)cnc1Cl [Example 40-S, 4-(((2S,5R)-5-((R)-(6-chloro-5-methylpyridin-3-yl)(hydroxy)methyl)pyrrolidin-2-yl)methyl)-N-methyl-N-(pyrazin-2-ylmethyl)benzamide] | 3130 nM | 268.2 fold | 60% | –
5 | Cc1cc(CN(C)C(=O)c2ccc(C[C@@H]3CC[C@H]([C@H](O)c4ccccc4)N3)cc2)n[nH]1 [Example 4-B, 4-(((2S,5R)-5-((R)-hydroxy(phenyl)methyl)pyrrolidin-2-yl)methyl)-N-methyl-N-((5-methyl-1H-pyrazol-3-yl)methyl)benzamide] | 14 nM | 2.6 fold | 108% | –
6 | Cc1cc(CN(C)C(=O)c2ccc(C[C@@H]3CC[C@H]([C@H](O)c4ccc(OC(F)F)cc4)N3)cc2)n[nH]1 [Example 4-E, 4-(((2S,5R)-5-((R)-(4-(difluoromethoxy)phenyl)(hydroxy)methyl)pyrrolidin-2-yl)methyl)-N-methyl-N-((5-methyl-1H-pyrazol-3-yl)methyl)benzamide] | 90 nM | 16.4 fold | 79% | –
7 | CN(Cc1ccnnc1)C(=O)c1ccc(C[C@@H]2CC[C@H]([C@H](O)c3ccccc3)N2)cc1 [Example 42-B, 4-(((2S,5R)-5-((R)-hydroxy(phenyl)methyl)pyrrolidin-2-yl)methyl)-N-methyl-N-(pyridazin-4-ylmethyl)benzamide] | 55 nM | 16.1 fold | 111% | –
8 | CN(Cc1cccnc1)C(=O)c1ccc(C[C@@H]2CC[C@H]([C@H](O)c3ccc(Cl)cc3)N2)cc1 [Example 21-G, 4-(((2S,5R)-5-((R)-(4-chlorophenyl)(hydroxy)methyl)pyrrolidin-2-yl)methyl)-N-methyl-N-(pyridin-3-ylmethyl)benzamide] | 6 nM | 1.3 fold | 88% | –
9 | Cc1cc(CN(C)C(=O)c2ccc(C[C@@H]3CC[C@H]([C@H](O)c4ccc(F)nc4)N3)cc2)n[nH]1 [Example 4-Q, 4-(((2S,5R)-5-((R)-(6-fluoropyridin-3-yl)(hydroxy)methyl)pyrrolidin-2-yl)methyl)-N-methyl-N-((5-methyl-1H-pyrazol-3-yl)methyl)benzamide] | 78 nM | 14.4 fold | 106% | –
10 | CC(c1cccnc1)N(C)C(=O)c1ccc(C[C@@H]2CC[C@H]([C@H](O)c3ccc(Cl)nc3)N2)cc1 (stereo partly drawn) [Example 23-A, 4-(((2S,5R)-5-((R)-(6-chloropyridin-3-yl)(hydroxy)methyl)pyrrolidin-2-yl)methyl)-N-methyl-N-(1-(pyridin-3-yl)ethyl)benzamide] | – | – | 96% | 2 nM
11 | C[C@H](c1nn(C)c(=O)o1)N(C)C(=O)c1ccc(C[C@@H]2CC[C@H]([C@H](O)c3ccc(Cl)nc3)N2)cc1 [Example 18-A, 4-(((2S,5R)-5-((R)-(6-chloropyridin-3-yl)(hydroxy)methyl)pyrrolidin-2-yl)methyl)-N-methyl-N—((R)-1-(4-methyl-5-oxo-4,5-dihydro-1,3,4-oxadiazol-2-yl)ethyl)benzamide] | 8 nM | – | 101% | –
12 | CN(Cc1cccnc1)C(=O)c1ccc(C[C@@H]2CC[C@H]([C@H](O)c3cccc(F)c3)N2)cc1 [Example 21-C, 4-(((2S,5R)-5-((R)-(3-fluorophenyl)(hydroxy)methyl)pyrrolidin-2-yl)methyl)-N-methyl-N-(pyridin-3-ylmethyl)benzamide] | 10 nM | 2.3 fold | 100% | –
13 | CN(Cc1cccnc1)C(=O)c1ccc(C[C@@H]2CC[C@H]([C@H](O)c3ccc(N)nc3)N2)cc1 [Example 21-M, 4-(((2S,5R)-5-((R)-(6-aminopyridin-3-yl)(hydroxy)methyl)pyrrolidin-2-yl)methyl)-N-methyl-N-(pyridin-3-ylmethyl)benzamide] | 20 nM | 4.7 fold | 97% | –
14 | O=C(c1ccc(C[C@@H]2CC[C@H]([C@H](O)c3ccc(Cl)nc3)N2)cc1)N(CCO)Cc1cccnc1F [Example 27-A, 4-(((2S,5R)-5-((R)-(6-chloropyridin-3-yl)(hydroxy)methyl)pyrrolidin-2-yl)methyl)-N-((2-fluoropyridin-3-yl)methyl)-N-(2-hydroxyethyl)benzamide] | 5 nM | – | 57% | –
15 | CN(Cc1cncc(-c2nn[nH]n2)c1)C(=O)c1ccc(C[C@@H]2CC[C@H]([C@H](O)c3ccccc3)N2)cc1 [Example 37-B, N-((5-(1H-tetrazol-5-yl)pyridin-3-yl)methyl)-4-(((2S,5R)-5-((R)-hydroxy(phenyl)methyl)pyrrolidin-2-yl)methyl)-N-methylbenzamide] | 63 nM | 2.4 fold | 101% | –
16 | C[C@H](c1nn(C)c(=O)o1)N(C)C(=O)c1ccc(C[C@@H]2CC[C@H]([C@H](O)c3ccccc3)N2)cc1 [Example 18-B, 4-(((2S,5R)-5-((R)-hydroxy(phenyl)methyl)pyrrolidin-2-yl)methyl)-N-methyl-N—((R)-1-(4-methyl-5-oxo-4,5-dihydro-1,3,4-oxadiazol-2-yl)ethyl)benzamide] | 68 nM | 8.6 fold | 105% | –
17 | CN(Cc1cncc(C#N)c1)C(=O)c1ccc(C[C@@H]2CC[C@H]([C@H](O)c3ccc(Cl)nc3)N2)cc1 [Example 35-A, 4-(((2S,5R)-5-((R)-(6-chloropyridin-3-yl)(hydroxy)methyl)pyrrolidin-2-yl)methyl)-N-((5-cyanopyridin-3-yl)methyl)-N-methylbenzamide] | 17 nM | – | 91% | –
18 | Cc1cc(CN(C)C(=O)c2ccc(C[C@@H]3CC[C@H]([C@H](O)c4ccccc4)N3)cc2)cnc1F [Example 39-B] | 2 nM | 3.8 fold | 104% | –
